Reference: ChEMBL document CHEMBL3132778, “Structureactivity relationships of tetrahydrocarbazole derivatives as antifungal lead compounds” (Medchemcomm, 2013)
Converted amounts (≈) assume the structure as drawn.

Key:
[1] = test system: Trichophyton rubrum; assay: Antifungal activity against Trichophyton rubrum by serial dilution method; type: functional
[2] = test system: Candida parapsilosis; assay: Antifungal activity against Candida parapsilosis after 24 hrs by serial dilution method; type: functional; conditions: Lodderomyces parapsilosis
[3] = test system: Aspergillus fumigatus; assay: Antifungal activity against Aspergillus fumigatus after 7 days by serial dilution method; type: functional; conditions: 168 h
[4] = test system: Candida albicans; assay: Antifungal activity against Candida albicans after 24 hrs by serial dilution method; type: functional
[5] = test system: Nannizzia gypsea; assay: Antifungal activity against Microsporum gypseum by serial dilution method; type: functional
[6] = test system: Cryptococcus neoformans; assay: Antifungal activity against Cryptococcus neoformans after 72 hrs by serial dilution method; type: functional
[7] = test system: Candida tropicalis; assay: Antifungal activity against Candida tropicalis after 24 hrs by serial dilution method; type: functional
[8] = test system: Kluyveromyces marxianus; assay: Antifungal activity against Candida kefyr after 24 hrs by serial dilution method; type: functional
[9] = Inhibition of Saccharomyces cerevisiae NMT

Row | Structure (SMILES) | MIC80 [1] [µg/mL] | MIC80 [2] [µg/mL] | MIC80 [3] [µg/mL] | MIC80 [4] [µg/mL] | MIC80 [5] [µg/mL] | MIC80 [6] [µg/mL] | MIC80 [7] [µg/mL] | MIC80 [8] [µg/mL] | IC50 [9] [nM]
1 | Cc1ccc2c(c1)c1c(n2CCCNCc2cccnc2)CCCC1 | 4 (≈ 12 µM) | 64 (≈ 192 µM) | 64 (≈ 192 µM) | 64 (≈ 192 µM) | 0.0625 (≈ 0.187 µM) | 64 (≈ 192 µM) | 16 (≈ 48 µM) | 16 (≈ 48 µM) | 
2 | Cc1ccc2c(c1)c1c(n2CCCNc2ccccc2)CCCC1 | 16 (≈ 50.2 µM) | 16 (≈ 50.2 µM) | 16 (≈ 50.2 µM) | 64 (≈ 201 µM) | 0.0625 (≈ 0.196 µM) | 16 (≈ 50.2 µM) | 16 (≈ 50.2 µM) | 16 (≈ 50.2 µM) | 
3 | Cc1ccc2c(c1)c1c(n2CCCNCc2ccc(Cl)cc2Cl)CCCC1 | > 64 | > 64 | > 64 | > 64 |  | > 64 | > 64 | > 64 | 
4 | Cc1ccc(C(=O)c2ccc3c(c2)c2c(n3CCCNCc3ccccc3)CCCC2)nc1 |  | > 64 | > 64 | 64 (≈ 146 µM) |  | > 64 | > 64 | > 64 | 
5 | O=C(Nc1ccc(Br)cc1)c1ccc2c(c1)c1c(n2CCCNCc2ccccc2)CCCC1 |  | > 64 | 64 (≈ 124 µM) | 32 (≈ 62 µM) |  | 16 (≈ 31 µM) | > 64 | > 64 | 
6 | O=C(OC1CCNCC1)c1ccc2c(c1)c1c(n2CCCNCc2ccccc2)CCCC1 |  | 32 (≈ 71.8 µM) | > 64 | 32 (≈ 71.8 µM) |  | 32 (≈ 71.8 µM) | 8 (≈ 18 µM) | 64 (≈ 144 µM) | 
7 | OC(Cn1cncn1)(Cn1cncn1)c1ccc(F)cc1F [FLUCONAZOLE] | 1 (≈ 3.27 µM) | 4 (≈ 13.1 µM) | > 64 | 0.5 (≈ 1.63 µM) | 1 (≈ 3.27 µM) | 1 (≈ 3.27 µM) | 2 (≈ 6.53 µM) | 4 (≈ 13.1 µM) | 
8 | O=C(c1ccc2c(c1)c1c(n2CCCNCc2ccccc2)CCCC1)c1ccccn1 |  | > 64 | > 64 | 64 (≈ 151 µM) |  | 64 (≈ 151 µM) | > 64 | > 64 | 
9 | O=C(c1ccc2c(c1)c1c(n2CCCNCc2ccccc2)CCCC1)c1nccs1 |  | > 64 | > 64 | 32 (≈ 74.5 µM) |  | > 64 | > 64 | > 64 | 
10 | Cc1ccc2c(c1)c1c(n2CC(O)CNCc2ccccc2)CCCC1 (stereo unspecified) | 16 (≈ 45.9 µM) | 64 (≈ 184 µM) | 64 (≈ 184 µM) | 16 (≈ 45.9 µM) | 16 (≈ 45.9 µM) | 4 (≈ 11.5 µM) | 64 (≈ 184 µM) | 64 (≈ 184 µM) | 
11 | Cc1ccc2c(c1)c1c(n2CCCNCc2cccc(F)c2)CCCC1 | 64 (≈ 183 µM) | 64 (≈ 183 µM) | > 64 | > 64 |  | 64 (≈ 183 µM) | > 64 | > 64 | 
12 | c1ccc(CNCCCn2c3c(c4cc(CNc5ccccc5)ccc42)CCCC3)cc1 |  | > 64 | > 64 | 32 (≈ 75.5 µM) |  | > 64 | > 64 | > 64 | 
13 | Cc1ccc2c(c1)c1c(n2CC(O)CNCc2cccnc2)CCCC1 (stereo unspecified) |  |  | 64 (≈ 183 µM) | > 64 | 16 (≈ 45.8 µM) | 64 (≈ 183 µM) |  |  | 
14 | Cc1ccc2c(c1)c1c(n2CCCNCc2cccc(Cl)c2)CCCC1 | > 64 | > 64 | > 64 | > 64 |  | 32 (≈ 87.2 µM) | > 64 | 64 (≈ 174 µM) | 
15 | CN1CCC(OC(=O)c2ccc3c(c2)c2c(n3CCCNCc3ccccc3)CCCC2)CC1 |  | 64 (≈ 139 µM) | 32 (≈ 69.6 µM) | 32 (≈ 69.6 µM) |  | 16 (≈ 34.8 µM) | 32 (≈ 69.6 µM) | 32 (≈ 69.6 µM) | 
16 | O=C(Oc1ccccc1)c1ccc2c(c1)c1c(n2CCCNCc2ccccc2)CCCC1 |  | > 64 | 64 (≈ 146 µM) | 64 (≈ 146 µM) |  | > 64 | > 64 | > 64 | 
17 | O=C(NCc1ccccc1)c1ccc2c(c1)c1c(n2CCCNCc2ccccc2)CCCC1 |  | > 64 | > 64 | > 64 |  | 64 (≈ 142 µM) | > 64 | > 64 | 

Row | Structure (SMILES) | MIC80 [1] [µg/mL] | MIC80 [2] [µg/mL] | MIC80 [3] [µg/mL] | MIC80 [4] [µg/mL] | MIC80 [5] [µg/mL] | MIC80 [6] [µg/mL] | MIC80 [7] [µg/mL] | MIC80 [8] [µg/mL] | IC50 [9] [nM]
18 | Cc1ccc2c(c1)c1c(n2CCCNCc2ccc(F)cc2)CCCC1 | 8 (≈ 22.8 µM) | 32 (≈ 91.3 µM) | 32 (≈ 91.3 µM) | 64 (≈ 183 µM) |  | 8 (≈ 22.8 µM) | 8 (≈ 22.8 µM) | 16 (≈ 45.7 µM) | 
19 | Cc1ccc(CNCCCn2c3c(c4cc(C)ccc42)CCCC3)cc1 | 8 (≈ 23.1 µM) | 32 (≈ 92.3 µM) | 32 (≈ 92.3 µM) | 32 (≈ 92.3 µM) |  | 8 (≈ 23.1 µM) | 16 (≈ 46.2 µM) | 16 (≈ 46.2 µM) | 
20 | Cc1ccc2c(c1)c1c(n2CCCNCc2ccccc2F)CCCC1 | 64 (≈ 183 µM) | > 64 | 16 (≈ 45.7 µM) | > 64 |  | > 64 | 32 (≈ 91.3 µM) | 16 (≈ 45.7 µM) | 
21 | O=C(Nc1ccccc1)c1ccc2c(c1)c1c(n2CCCNCc2ccccc2)CCCC1 |  | > 64 | > 64 | 32 (≈ 73.1 µM) |  | 64 (≈ 146 µM) | > 64 | > 64 | 
22 | O=C(OCc1ccc2c(c1)c1c(n2CCCNCc2ccccc2)CCCC1)c1ccccc1 |  | > 64 | > 64 | > 64 |  | > 64 | > 64 | > 64 | 
23 | Cc1ccc2c(c1)c1c(n2CCCNCc2ccccc2Cl)CCCC1 | > 64 | > 64 | > 64 | > 64 |  | > 64 | > 64 | > 64 | 
24 | Cc1ccc2c(c1)c1c(n2CCCNC2CCCCC2)CCCC1 |  |  | > 64 | > 64 | 4 (≈ 12.3 µM) | > 64 |  |  | 
25 | Cc1ccc2c(c1)c1c(n2CC(O)CNc2ccccc2)CCCC1 (stereo unspecified) |  |  | > 64 | > 64 | 1 (≈ 2.99 µM) | > 64 |  |  | 
26 | O=C(OC1CCCCC1)c1ccc2c(c1)c1c(n2CCCNCc2ccccc2)CCCC1 |  | > 64 | > 64 | 64 (≈ 144 µM) |  | > 64 | > 64 | > 64 | 
27 | CCOC(=O)c1ccc2c(c1)c1c(n2CCCNCc2ccccc2)CCCC1 |  | > 64 | > 64 | > 64 |  | > 64 | > 64 | > 64 | 
28 | Cc1c(C(=O)c2ccccn2)oc2cccc(OCCCNCc3cccnc3)c12 | 64 (≈ 159 µM) | 4 (≈ 9.96 µM) | > 64 | 4 (≈ 9.96 µM) | > 64 | > 64 | 8 (≈ 19.9 µM) | 4 (≈ 9.96 µM) | 
29 | COc1ccc(CNCCCn2c3c(c4cc(C)ccc42)CCCC3)cc1 | 8 (≈ 22.1 µM) | 16 (≈ 44.1 µM) | 16 (≈ 44.1 µM) | 32 (≈ 88.3 µM) |  | 16 (≈ 44.1 µM) | 8 (≈ 22.1 µM) | 16 (≈ 44.1 µM) | 
30 | Cc1ccc2c(c1)c1c(n2C[C@@H](O)CNC2CCCCC2)CCCC1 | 16 (≈ 47 µM) | 16 (≈ 47 µM) | 64 (≈ 188 µM) | 64 (≈ 188 µM) | 16 (≈ 47 µM) | 16 (≈ 47 µM) | 64 (≈ 188 µM) | 64 (≈ 188 µM) | 24
31 | Cc1ccc2c(c1)c1c(n2CCCNCc2ccc(Cl)cc2)CCCC1 | > 64 | 32 (≈ 87.2 µM) | 16 (≈ 43.6 µM) | > 64 |  | > 64 | 64 (≈ 174 µM) | 16 (≈ 43.6 µM) | 
32 | OCc1ccc2c(c1)c1c(n2CCCNCc2ccccc2)CCCC1 |  | > 64 | > 64 | > 64 |  | > 64 | > 64 | > 64 | 
33 | Cc1ccc2c(c1)c1c(n2CCCNCc2ccccc2)CCCC1 | 4 (≈ 12 µM) | 16 (≈ 48.1 µM) | 32 (≈ 96.2 µM) | 16 (≈ 48.1 µM) | 0.0156 (≈ 0.0469 µM) | 1 (≈ 3.01 µM) | 32 (≈ 96.2 µM) | 32 (≈ 96.2 µM) | 
